Test results from article PMC11995724, “Antibiotic target discovery by integrated phenotypic and activity-based profiling of electrophilic fragments” (Cell chemical biology, 2025).
Counter-ions that a name gives are not always drawn.

Experiment: in vitro
Conditions: human, hek293t cells
Procedure: Mammalian cytotoxicity measurement was performed using Cell Titer-Glo 2.0 Cell Viability Assay (Promega, G9243) according to the manufacturer protocol. In brief, mammalian cells were seeded into 384-well white plates (Greiner, 781080) and incubated at 37°C for one day. Compounds from the Cys-Library were dispensed into the assay plate using epMotion 96. The plates were then incubated at 37°C for two days. An equal volume of Cell Titer-Glo 2.0 reagent was added into each well of the assay plate using epMotion 96 and incubated at 22°C for 10 min, followed by luminescence measurement using a Cytation 5 plate reader (BioTek).

SMILES	viability at 48 h, 25 µM
CC(Cl)C(=O)N1CCn2cccc2C1c1ccccc1 (stereo not drawn) [7-E11, 2-chloro-1-{1-phenyl-1H,2H,3H,4H-pyrrolo[1,2-a]pyrazin-2-yl}propan-1-one]	97.1%
CC(Cl)C(=O)NC(Cc1ccccc1)c1ncco1 (stereo not drawn) [7-E12, 2-chloro-N-[1-(1,3-oxazol-2-yl)-2-phenylethyl]propanamide]	84.4%
CC(Cl)C(=O)NC1CCN(CC(=O)Nc2ccccc2)CC1 (stereo not drawn) [7-E13, 2-chloro-N-{1-[(phenylcarbamoyl)methyl]piperidin-4-yl}propanamide]	85.2%
CC(Cl)C(=O)N(Cc1cccs1)[C@@H]1C=C[C@H](CO)C1 (stereo partly drawn) [7-E14, 2-chloro-N-[(1S,4R)-4-(hydroxymethyl)cyclopent-2-en-1-yl]-N-[(thiophen-2-yl)methyl]propanamide]	87.9%
CC(Cl)C(=O)NC(C)(C)c1cccc(Cl)c1F (stereo not drawn) [7-E15, 2-chloro-N-[2-(3-chloro-2-fluorophenyl)propan-2-yl]propanamide]	91.2%
CC(Cl)C(=O)NC1c2cc(F)ccc2CC1C (stereo not drawn) [7-E16, 2-chloro-N-(6-fluoro-2-methyl-2,3-dihydro-1H-inden-1-yl)propanamide]	74.7%
CC(Cl)C(=O)NCCC1(C)OCCO1 (stereo not drawn) [7-E17, 2-chloro-N-[2-(2-methyl-1,3-dioxolan-2-yl)ethyl]propanamide]	82.4%
CC(Cl)C(=O)N1CCC(N(C)Cc2cc(=O)[nH]c(N(C)C)n2)C1 (stereo not drawn) [7-E18, 6-({[1-(2-chloropropanoyl)pyrrolidin-3-yl](methyl)amino}methyl)-2-(dimethylamino)-3,4-dihydropyrimidin-4-one]	72.3%
CC(Cl)C(=O)N1CCCC1Cc1cccc(F)c1F (stereo not drawn) [7-E19, 2-chloro-1-{2-[(2,3-difluorophenyl)methyl]pyrrolidin-1-yl}propan-1-one]	61.3%
CC(Cl)C(=O)N1CCN(C(=O)Cc2cccc(Cl)c2)C(C)C1 (stereo not drawn) [7-E20, 2-chloro-1-{4-[2-(3-chlorophenyl)acetyl]-3-methylpiperazin-1-yl}propan-1-one]	65.1%
CC(Cl)C(=O)NCCNC(=O)c1ccoc1 (stereo not drawn) [7-E21, 2-chloro-N-{2-[(furan-3-yl)formamido]ethyl}propanamide]	90.5%
CC1CN(C(=O)c2ccc(NC(=O)C(C)Cl)cc2)CC(C)O1 (stereo not drawn) [7-E22, 2-chloro-N-[4-(2,6-dimethylmorpholine-4-carbonyl)phenyl]propanamide]	79.1%
O=C(CCl)NC(c1ccccc1)C1CC1c1ccncc1 (stereo not drawn) [7-F03, 2-chloro-N-{phenyl[2-(pyridin-4-yl)cyclopropyl]methyl}acetamide hydrochloride]	0.921%
Cc1cccc(Cl)c1CCCNC(=O)CCl [7-F04, 2-chloro-N-[3-(2-chloro-6-methylphenyl)propyl]acetamide]	0.614%
CC(Cl)C(=O)NCCN(C)S(=O)(=O)c1cccs1 (stereo not drawn) [7-F05, 2-chloro-N-[2-(N-methylthiophene-2-sulfonamido)ethyl]propanamide]	97.9%
CC(CO)(Cc1ccc(F)cc1)NC(=O)CCl (stereo not drawn) [7-F06, 2-chloro-N-{2-[(4-fluorophenyl)methyl]-1-hydroxypropan-2-yl}acetamide]	3.71%
CCC1CN(CCn2cccn2)CCN1C(=O)C(C)Cl (stereo not drawn) [7-F07, 2-chloro-1-{2-ethyl-4-[2-(1H-pyrazol-1-yl)ethyl]piperazin-1-yl}propan-1-one]	98.7%
Cc1nc(C(NC(=O)CCl)c2ccccc2)no1 (stereo not drawn) [7-F08, 2-chloro-N-[(5-methyl-1,2,4-oxadiazol-3-yl)(phenyl)methyl]acetamide]	1.04%
CC(Cl)C(=O)NCCc1nc(C2CCCCC2)cs1 (stereo not drawn) [7-F09, 2-chloro-N-[2-(4-cyclohexyl-1,3-thiazol-2-yl)ethyl]propanamide]	84.8%
O=C(CCl)NC1COc2ncccc21 (stereo not drawn) [7-F10, 2-chloro-N-{2H,3H-furo[2,3-b]pyridin-3-yl}acetamide]	53.7%
CC(Cl)C(=O)N1Cc2ccccc2OCC1C (stereo not drawn) [7-F11, 2-chloro-1-(3-methyl-2,3,4,5-tetrahydro-1,4-benzoxazepin-4-yl)propan-1-one]	86.6%
Cc1nc2n(n1)CCCC2NC(=O)CCl (stereo not drawn) [7-F12, 2-chloro-N-{2-methyl-5H,6H,7H,8H-[1,2,4]triazolo[1,5-a]pyridin-8-yl}acetamide]	58.1%
CC(Cl)C(=O)N1CCN(Cc2cnn(-c3ccccc3)c2)CC1 (stereo not drawn) [7-F13, 2-chloro-1-{4-[(1-phenyl-1H-pyrazol-4-yl)methyl]piperazin-1-yl}propan-1-one]	93%
CC(c1ccc(C(F)(F)F)c(Cl)c1)N(C)C(=O)CCl (stereo not drawn) [7-F14, 2-chloro-N-{1-[3-chloro-4-(trifluoromethyl)phenyl]ethyl}-N-methylacetamide]	0.626%
Cc1cc(C)n(C2CN(C(=O)C(C)Cl)C2)n1 (stereo not drawn) [7-F15, 2-chloro-1-[3-(3,5-dimethyl-1H-pyrazol-1-yl)azetidin-1-yl]propan-1-one]	85.3%
C[C@@H](NC(=O)CCl)c1cnnn1C [7-F16, 2-chloro-N-[(1R)-1-(1-methyl-1H-1,2,3-triazol-5-yl)ethyl]acetamide]	44.8%

SMILES	viability at 48 h, 25 µM
CC(Cl)C(=O)NC1CCCCC1n1cccn1 (stereo not drawn) [7-F17, 2-chloro-N-[2-(1H-pyrazol-1-yl)cyclohexyl]propanamide]	97.9%
Cc1ccc(C)n1C1CCC(NC(=O)CCl)CC1 (stereo not drawn) [7-F18, 2-chloro-N-[4-(2,5-dimethyl-1H-pyrrol-1-yl)cyclohexyl]acetamide]	106%
CC(Cl)C(=O)N1CCCC1c1nc(N(C)C)no1 (stereo not drawn) [7-F19, 2-chloro-1-{2-[3-(dimethylamino)-1,2,4-oxadiazol-5-yl]pyrrolidin-1-yl}propan-1-one]	77.6%
O=C(CCl)NC1CCCc2c1cnn2Cc1ccccc1 (stereo not drawn) [7-F20, N-(1-benzyl-4,5,6,7-tetrahydro-1H-indazol-4-yl)-2-chloroacetamide]	0.873%
Cc1nn(C)c(NC(=O)C(C)Cl)c1-c1ccccc1 (stereo not drawn) [7-F21, 2-chloro-N-(1,3-dimethyl-4-phenyl-1H-pyrazol-5-yl)propanamide]	84.5%
O=C(CCl)NC(c1cc(F)ccc1F)C(F)F (stereo not drawn) [7-F22, 2-chloro-N-[1-(2,5-difluorophenyl)-2,2-difluoroethyl]acetamide]	0.697%
CNC(=O)c1cc(OC2CCN(C(=O)C(C)Cl)C2)ccn1 (stereo not drawn) [7-G03, 4-{[1-(2-chloropropanoyl)pyrrolidin-3-yl]oxy}-N-methylpyridine-2-carboxamide]	111%
Cc1noc(C2CN(C(=O)C(C)Cl)C2)n1 (stereo not drawn) [7-G04, 2-chloro-1-[3-(3-methyl-1,2,4-oxadiazol-5-yl)azetidin-1-yl]propan-1-one]	92.2%
CC(Cl)C(=O)N1CC(S(=O)(=O)Nc2ccccc2)C1 (stereo not drawn) [7-G05, 1-(2-chloropropanoyl)-N-phenylazetidine-3-sulfonamide]	102%
CC(Cl)C(=O)N1CCCN2c3ccccc3CC2C1 (stereo not drawn) [7-G06, 1-{1H,2H,3H,4H,5H,11H,11aH-[1,4]diazepino[1,2-a]indol-2-yl}-2-chloropropan-1-one]	96.3%
CCOc1cccc(N2CCN(C(=O)C(C)Cl)CC2)n1 (stereo not drawn) [7-G07, 2-chloro-1-[4-(6-ethoxypyridin-2-yl)piperazin-1-yl]propan-1-one]	83.5%
CCn1cc(C2CN(C(=O)C(C)Cl)CCO2)cn1 (stereo not drawn) [7-G08, 2-chloro-1-[2-(1-ethyl-1H-pyrazol-4-yl)morpholin-4-yl]propan-1-one]	89.1%
CC(Cl)C(=O)NC(C)c1ccc(C(F)(F)F)nc1Cl (stereo not drawn) [7-G09, 2-chloro-N-{1-[2-chloro-6-(trifluoromethyl)pyridin-3-yl]ethyl}propanamide]	83.5%
CC(Cl)C(=O)N1CCN(c2nccc3sccc23)CC1 (stereo not drawn) [7-G10, 2-chloro-1-(4-{thieno[3,2-c]pyridin-4-yl}piperazin-1-yl)propan-1-one]	83.5%
CC(Cl)C(=O)N(Cc1ccsc1)C1CC1 (stereo not drawn) [7-G11, 2-chloro-N-cyclopropyl-N-[(thiophen-3-yl)methyl]propanamide]	86.9%
CC1CCCN(C(=O)C(NC(=O)C(C)Cl)c2cnn(C)c2)C1 (stereo not drawn) [7-G12, 2-chloro-N-[1-(1-methyl-1H-pyrazol-4-yl)-2-(3-methylpiperidin-1-yl)-2-oxoethyl]propanamide]	81.1%
CC(Cl)C(=O)NC1CCCc2c1cnn2Cc1ccccc1 (stereo not drawn) [7-G13, N-(1-benzyl-4,5,6,7-tetrahydro-1H-indazol-4-yl)-2-chloropropanamide]	87.2%
CC(Cl)C(=O)N(c1ccccc1)C1CCOC1 (stereo not drawn) [7-G14, 2-chloro-N-(oxolan-3-yl)-N-phenylpropanamide]	64.4%
CC(Cl)C(=O)NCC(c1ccccc1)c1nnc[nH]1 (stereo not drawn) [7-G15, 2-chloro-N-[2-phenyl-2-(4H-1,2,4-triazol-3-yl)ethyl]propanamide]	114%
CC(Cl)C(=O)NCC(NS(=O)(=O)N(C)C)C1CCCC1 (stereo not drawn) [7-G16, 2-chloro-N-{2-cyclopentyl-2-[(dimethylsulfamoyl)amino]ethyl}propanamide]	91.3%
CC(Cl)C(=O)NCCc1nnnn1-c1ccccc1 (stereo not drawn) [7-G17, 2-chloro-N-[2-(1-phenyl-1H-1,2,3,4-tetrazol-5-yl)ethyl]propanamide]	92.2%
CC(Cl)C(=O)N1C2CCC1CC(O)(Cc1ccc(F)cc1F)C2 (stereo not drawn) [7-G18, 2-chloro-1-{3-[(2,4-difluorophenyl)methyl]-3-hydroxy-8-azabicyclo[3.2.1]octan-8-yl}propan-1-one]	60%
CC(Cl)C(=O)NCc1ccc(C(=O)Nc2ccc(F)cc2)cc1 (stereo not drawn) [7-G19, 4-[(2-chloropropanamido)methyl]-N-(4-fluorophenyl)benzamide]	76.3%
Cc1ccccc1N(CC(=O)N1CCCCC1)C(=O)C(C)Cl (stereo not drawn) [7-G20, 2-chloro-N-(2-methylphenyl)-N-[2-oxo-2-(piperidin-1-yl)ethyl]propanamide]	70.7%
CC(Cl)C(=O)NCCn1cccc1 (stereo not drawn) [7-G21, 2-chloro-N-[2-(1H-pyrrol-1-yl)ethyl]propanamide]	87.8%
